In patent US20200024278A1, “COMPOSITION COMPRISING ANTIBIOTIC COMPOUND AND AN HETEROCYCLIC COMPOUND AND THEIR USE IN PREVENTING OR TREATING BACTERIAL INFECTIONS” (MUTABILIS, priority 2016, published 2020):
Like-named read-outs stand apart in the source and are kept apart here.

Key:
Experiment in all cases: MIC, broth microdilution (CLSI), substance alone or ATB combined with compound at 4 or 8 μg/mL
PAE 105250 = assay type: cell-based, P. aeruginosa; settings: Pseudomonas aeruginosa, PAE 105250
Summary of the method: (§1)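 Antibiotic MICs were determined in presence of fixed compound at 4 or 8 μg/mL, and compound MICs alone, by visual growth inhibition. Inoculum 5·10^5 CFU/mL in ca-MHB, incubated 35 °C for 16-20 h per CLSI-M7-A7. Glucose-6-phosphate (25 μg/ml) added when fosfomycin was tested.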

PAE UFR90 = assay type: cell-based, P. aeruginosa; settings: Pseudomonas aeruginosa, PAE UFR90
Summary of the method: as §1

PAE UFR48 = assay type: cell-based, P. aeruginosa; settings: Pseudomonas aeruginosa, PAE UFR48
Summary of the method: as §1

SAU 29213 = assay type: cell-based, S. aureus; settings: Staphylococcus aureus
Summary of the method: as §1

KPN BAA-1898 = assay type: cell-based, K. pneumoniae; settings: Klebsiella pneumoniae, BAA1898, KPN BAA-1898
Summary of the method: as §1

KPN UFR68 = assay type: cell-based, K. pneumoniae; settings: Klebsiella pneumoniae, substance alone
Summary of the method: as §1

KPN UFR42 = assay type: cell-based, K. pneumoniae; settings: Klebsiella pneumoniae, KPN UFR42
Summary of the method: as §1

KPN 6299 = assay type: cell-based, K. pneumoniae; settings: Klebsiella pneumoniae
Summary of the method: as §1

SPN 49619 = assay type: cell-based, S. pneumoniae; settings: Streptococcus pneumoniae, SPN 49619
Summary of the method: as §1

ECL P99 = assay type: cell-based, E. cloacae; settings: Enterobacter cloacae, ECL P99
Summary of the method: as §1

ECO 190317 = assay type: cell-based, E. coli; settings: Escherichia coli, ECO 190317
Summary of the method: as §1

ECO UFR39 = assay type: cell-based, E. coli; settings: Escherichia coli, ECO UFR39
Summary of the method: as §1

[1] = antibiotic alone, read-out: MIC ATB alone

In the case of `CCN1CCN(C(=O)N[C@@H](C(=O)N[C@@H]2C(=O)N3[C@@H]2SC(C)(C)[C@@H]3C(=O)O)c2ccccc2)C(=O)C1=O` [PIP, Piperacillin, reference compound], the MIC (PAE 105250; [1]) is reported as 128 µg/mL, the MIC (PAE 105250; substance alone, read-out: MIC) is reported as 128 µg/mL and the MIC (PAE UFR90; [1]) is reported as 256 µg/mL. For the same compound, the MIC (PAE UFR90; substance alone, read-out: MIC) was 256 µg/mL, the MIC (PAE UFR48; [1]) was 256 µg/mL and the MIC (PAE UFR48; substance alone, read-out: MIC) was 256 µg/mL. It also gave an MIC (SAU 29213; antibiotic alone, SAU 29213, read-out: MIC ATB alone) of 8 µg/mL, an MIC (SAU 29213; substance alone, SAU 29213 (MSSA 29213), read-out: MIC) of 8 µg/mL and an MIC (KPN BAA-1898; [1]) of over 1020 µg/mL. For the same compound, the MIC (KPN BAA-1898; substance alone, read-out: MIC) was over 1020 µg/mL, the MIC (KPN UFR68) was over 1020 µg/mL and the MIC (KPN UFR42; [1]) was over 256 µg/mL. The MIC (KPN UFR42; substance alone, read-out: MIC) was over 256 µg/mL, the MIC (KPN 6299; [1]) was over 1020 µg/mL and the MIC (KPN 6299; substance alone, read-out: MIC) was over 1020 µg/mL. For the same compound, the MIC (SPN 49619; [1]) was 0.5 µg/mL, the MIC (SPN 49619; substance alone, read-out: MIC) was 0.5 µg/mL and the MIC (ECL P99; [1]) was 512 µg/mL. The MIC (ECL P99; substance alone, read-out: MIC) was 512 µg/mL, the MIC (ECO 190317; [1]) was over 1020 µg/mL and the MIC (ECO 190317; substance alone, read-out: MIC) was over 1020 µg/mL. The MIC (ECO UFR39; [1]) was over 1020 µg/mL and the MIC (ECO UFR39; substance alone, read-out: MIC) was over 1020 µg/mL.
